# Source: the supplement of paper PMC10307832
# Compound: COc1cccc2cc(-c3nc([C@H]4CC[C@H](C(=O)O)CC4)n4ncnc(N)c34)[nH]c12 [OSI-027] + Nc1nc2[nH]cc(CCc3ccc(C(=O)N[C@@H](CCC(=O)O)C(=O)O)cc3)c2c(=O)[nH]1 [Pemetrexed] (partner 0.2 µM)
# Experiment: relative viability (nuclei count vs DMSO), 5 days (fraction); higher = more cells survive
# Conditions: first compound 0.01 µM
# How it was run: (§1)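 Relative viability was taken as the ratio of nuclei in treated wells to nuclei in vehicle wells. Lung cancer cell lines in 1536-well plates received compounds by pin tool one day after seeding, either one drug alone or a fixed anchor-drug dose plus five library-drug doses (not always all listed) in √10 steps. Nuclei were counted on 4× images after 5 days of treatment, and values are medians of duplicate plates.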
row,Cell Line,relative viability
1,NCI-H1648,0.849
2,NCI-H1993,0.533
3,ChaGo-K-1,0.259
4,NCI-H1355,1.07
5,HCC-366,0.18
6,NCI-H1915,0.546
7,NCI-H838,0.245
8,A-427,0.575
9,NCI-H2009,1.15
10,EKVX,0.438
11,NCI-H1563,0.754
12,NCI-H1792,0.569

# Same assay, conditions: first compound 0.03162 µM
row,Cell Line,relative viability
1,NCI-H2126,0.676
2,EPLC-272H,0.279
3,NCI-H1755,0.417
4,NCI-H2023,0.242
5,NCI-H1650,0.361
6,NCI-H1793,0.866
7,NCI-H2342,0.818
8,H3255,0.569
9,NCI-H1975,0.275
10,PC-14,0.149
11,NCI-H1437,0.348
12,HOP-62,0.307
13,HCC-44,0.649
14,BEN,0.754
15,LOU-NH91,0.368
16,NCI-H661,0.941

row,Cell Line,relative viability
1,NCI-H1651,0.575
2,PC-3 [JPC-3],1.1
3,SW 1573,0.982
4,NCI-H2405,1.01
5,NCI-H1648,0.825
6,NCI-H1993,0.41
7,ChaGo-K-1,0.311
8,NCI-H1355,1.06
9,HCC-366,0.162
10,NCI-H1915,0.516
11,NCI-H838,0.255
12,A-427,0.966
13,NCI-H2009,1.05
14,EKVX,0.391
15,NCI-H1563,0.719
16,NCI-H1792,0.852

# Same assay, conditions: first compound 0.1 µM
row,Cell Line,relative viability
1,NCI-H2126,0.663
2,EPLC-272H,0.263
3,NCI-H1755,0.454
4,NCI-H2023,0.201
5,NCI-H1650,0.369
6,NCI-H1793,0.468
7,NCI-H2342,0.752
8,H3255,0.507
9,NCI-H1975,0.292
10,PC-14,0.149
11,NCI-H1437,0.26
12,HOP-62,0.341
13,HCC-44,0.708
14,BEN,0.472
15,LOU-NH91,0.493
16,NCI-H661,0.934

row,Cell Line,relative viability
1,NCI-H1651,0.532
2,PC-3 [JPC-3],0.775
3,SW 1573,0.852
4,LK-2,0.237
5,NCI-H2405,0.922
6,NCI-H1993,0.522
7,ChaGo-K-1,0.251
8,NCI-H1355,1
9,HCC-366,0.175
10,NCI-H1915,0.47
11,NCI-H838,0.249
12,A-427,0.783
13,NCI-H2009,1.04
14,EKVX,0.486
15,NCI-H1563,0.72
16,NCI-H1792,0.757

# Same assay, conditions: first compound 0.3162 µM
row,Cell Line,relative viability
1,NCI-H2126,0.688
2,EPLC-272H,0.273
3,NCI-H1755,0.655
4,NCI-H2023,0.173
5,NCI-H1650,0.405
6,NCI-H1793,0.391
7,NCI-H2342,0.697
8,H3255,0.513
9,NCI-H1975,0.303
10,PC-14,0.139
11,NCI-H1437,0.259
12,HOP-62,0.331
13,HCC-44,0.658
14,BEN,0.586
15,LOU-NH91,0.508
16,NCI-H661,0.882
17,NCI-H1651,0.57

row,Cell Line,relative viability
1,PC-3 [JPC-3],0.84
2,SW 1573,0.771
3,LK-2,0.174
4,NCI-H2405,0.85
5,NCI-H1648,0.656
6,NCI-H1993,0.465
7,ChaGo-K-1,0.337
8,NCI-H1355,0.777
9,HCC-366,0.186
10,NCI-H1915,0.449
11,NCI-H838,0.234
12,A-427,0.737
13,NCI-H2009,0.998
14,EKVX,0.382
15,NCI-H1563,0.755
16,NCI-H1792,0.635

# Same assay, conditions: first compound 1 µM
row,Cell Line,relative viability
1,NCI-H2126,0.512
2,EPLC-272H,0.338
3,NCI-H1755,0.439
4,NCI-H2023,0.121
5,NCI-H1650,0.475
6,NCI-H1793,0.209
7,NCI-H2342,0.5
8,H3255,0.495
9,NCI-H1975,0.259
10,PC-14,0.191
11,NCI-H1437,0.24
12,HOP-62,0.261
13,HCC-44,0.669
14,BEN,0.46
15,LOU-NH91,0.63
16,NCI-H661,0.631
17,NCI-H1651,0.523

row,Cell Line,relative viability
1,PC-3 [JPC-3],0.785
2,SW 1573,0.343
3,LK-2,0.158
4,NCI-H2405,0.448
5,NCI-H1648,0.701
6,NCI-H1993,0.45
7,ChaGo-K-1,0.262
8,NCI-H1355,0.572
9,HCC-366,0.206
10,NCI-H1915,0.536
11,NCI-H838,0.214
12,A-427,0.616
13,NCI-H2009,0.687
14,EKVX,0.403
15,NCI-H1563,0.543
16,NCI-H1792,0.214

# Compound: COc1cccc2cc(-c3nc([C@H]4CC[C@H](C(=O)O)CC4)n4ncnc(N)c34)[nH]c12 [OSI-027] + O=C(CCCCCCC(=O)Nc1ccccc1)NO [Vorinostat] (partner 1 µM)
# Experiment: as above
# Conditions: first compound 0.01 µM
# How it was run: as §1
row,Cell Line,relative viability
1,NCI-H2126,0.703
2,EPLC-272H,0.384
3,NCI-H1755,0.72
4,NCI-H2023,0.7
5,NCI-H1650,0.56
6,NCI-H1793,0.713
7,NCI-H2342,0.715
8,H3255,0.729
9,NCI-H1975,0.722
10,PC-14,0.734
11,NCI-H1437,0.859
12,HOP-62,0.586
13,HCC-44,1.11
14,BEN,0.557
15,LOU-NH91,0.858
16,NCI-H661,0.806
17,NCI-H1651,0.57

row,Cell Line,relative viability
1,PC-3 [JPC-3],0.649
2,SW 1573,0.818
3,LK-2,0.272
4,NCI-H2405,1.04
5,NCI-H1648,0.369
6,NCI-H1993,0.86
7,ChaGo-K-1,0.732
8,NCI-H1355,0.648
9,HCC-366,0.404
10,NCI-H1915,0.542
11,NCI-H838,0.65
12,A-427,0.886
13,NCI-H2009,0.735
14,ABC-1,0.764
15,EKVX,0.661
16,NCI-H727,1.08
17,IA-LM,0.997

# Same assay, conditions: first compound 0.03162 µM
row,Cell Line,relative viability
1,NCI-H2126,0.682
2,EPLC-272H,0.358
3,NCI-H1755,0.855
4,NCI-H2023,0.698
5,NCI-H1650,0.515
6,NCI-H1793,0.777
7,NCI-H2342,0.611
8,H3255,0.935
9,NCI-H1975,0.647
10,PC-14,0.72
11,NCI-H1437,0.767
12,HOP-62,0.662
13,HCC-44,1.16
14,BEN,0.55
15,LOU-NH91,0.913
16,NCI-H661,0.801
17,NCI-H1651,0.482

row,Cell Line,relative viability
1,PC-3 [JPC-3],0.787
2,SW 1573,0.718
3,LK-2,0.296
4,NCI-H2405,1.02
5,NCI-H1648,0.323
6,NCI-H1993,0.967
7,ChaGo-K-1,0.815
8,NCI-H1355,0.632
9,HCC-366,0.367
10,NCI-H1915,0.502
11,NCI-H838,0.646
12,A-427,0.844
13,NCI-H2009,0.718
14,ABC-1,1.19
15,EKVX,0.618
16,NCI-H727,1.06
17,IA-LM,0.388

# Same assay, conditions: first compound 0.1 µM
row,Cell Line,relative viability
1,NCI-H2126,0.692
2,EPLC-272H,0.267
3,NCI-H1755,0.655
4,NCI-H2023,0.526
5,NCI-H1650,0.532
6,NCI-H1793,0.444
7,NCI-H2342,0.683
8,H3255,0.693
9,NCI-H1975,0.672
10,PC-14,0.585
11,NCI-H1437,0.861
12,HOP-62,0.53
13,HCC-44,1.17
14,BEN,0.511
15,LOU-NH91,0.69
16,NCI-H661,0.759
17,NCI-H1651,0.509

row,Cell Line,relative viability
1,PC-3 [JPC-3],0.454
2,SW 1573,0.669
3,LK-2,0.244
4,NCI-H2405,0.899
5,NCI-H1993,0.717
6,ChaGo-K-1,0.709
7,NCI-H1355,0.622
8,HCC-366,0.325
9,NCI-H1915,0.479
10,NCI-H838,0.632
11,A-427,0.78
12,NCI-H2009,0.708
13,ABC-1,0.66
14,EKVX,0.649
15,NCI-H727,1.11
16,IA-LM,0.652

# Same assay, conditions: first compound 0.3162 µM
row,Cell Line,relative viability
1,NCI-H2126,0.627
2,EPLC-272H,0.384
3,NCI-H1755,0.711
4,NCI-H2023,0.581
5,NCI-H1650,0.407
6,NCI-H1793,0.377
7,NCI-H2342,0.768
8,H3255,0.795
9,NCI-H1975,0.657
10,PC-14,0.698
11,NCI-H1437,0.848
12,HOP-62,0.546
13,HCC-44,1.09
14,BEN,0.428
15,LOU-NH91,0.712
16,NCI-H661,0.717
17,NCI-H1651,0.528

row,Cell Line,relative viability
1,PC-3 [JPC-3],0.56
2,SW 1573,0.728
3,LK-2,0.176
4,NCI-H2405,0.831
5,NCI-H1648,0.477
6,NCI-H1993,0.474
7,ChaGo-K-1,0.698
8,NCI-H1355,0.475
9,HCC-366,0.314
10,NCI-H1915,0.426
11,NCI-H838,0.55
12,A-427,0.721
13,NCI-H2009,0.675
14,ABC-1,0.67
15,EKVX,0.561
16,NCI-H727,1.23
17,IA-LM,0.479

# Same assay, conditions: first compound 1 µM
row,Cell Line,relative viability
1,NCI-H2126,0.586
2,EPLC-272H,0.233
3,NCI-H1755,0.472
4,NCI-H2023,0.34
5,NCI-H1650,0.358
6,NCI-H1793,0.281
7,NCI-H2342,0.547
8,H3255,0.652
9,NCI-H1975,0.496
10,PC-14,0.445
11,NCI-H1437,0.521
12,HOP-62,0.296
13,HCC-44,0.757
14,BEN,0.297
15,LOU-NH91,0.479
16,NCI-H661,0.458
17,NCI-H1651,0.469

row,Cell Line,relative viability
1,PC-3 [JPC-3],0.527
2,SW 1573,0.393
3,LK-2,0.179
4,NCI-H2405,0.549
5,NCI-H1648,0.236
6,NCI-H1993,0.449
7,ChaGo-K-1,0.581
8,NCI-H1355,0.3
9,HCC-366,0.194
10,NCI-H1915,0.34
11,NCI-H838,0.459
12,A-427,0.542
13,NCI-H2009,0.588
14,ABC-1,0.758
15,EKVX,0.4
16,NCI-H727,1.03
17,IA-LM,0.15
